The numbers were not newly measured in patent US9637723B2, “Generation of functional and durable endothelial cells from human amniotic fluid-derived cells” (Cornell University, priority 2012, dated 2017), which cites them from elsewhere.

Molecules are shown by their SMILES. Where two headings read alike, the source gives them in different places.

For the data set, the target named is T1, ALK5 (Homo sapiens, UniProt P36897).
T1 sequence (P36897 34-503): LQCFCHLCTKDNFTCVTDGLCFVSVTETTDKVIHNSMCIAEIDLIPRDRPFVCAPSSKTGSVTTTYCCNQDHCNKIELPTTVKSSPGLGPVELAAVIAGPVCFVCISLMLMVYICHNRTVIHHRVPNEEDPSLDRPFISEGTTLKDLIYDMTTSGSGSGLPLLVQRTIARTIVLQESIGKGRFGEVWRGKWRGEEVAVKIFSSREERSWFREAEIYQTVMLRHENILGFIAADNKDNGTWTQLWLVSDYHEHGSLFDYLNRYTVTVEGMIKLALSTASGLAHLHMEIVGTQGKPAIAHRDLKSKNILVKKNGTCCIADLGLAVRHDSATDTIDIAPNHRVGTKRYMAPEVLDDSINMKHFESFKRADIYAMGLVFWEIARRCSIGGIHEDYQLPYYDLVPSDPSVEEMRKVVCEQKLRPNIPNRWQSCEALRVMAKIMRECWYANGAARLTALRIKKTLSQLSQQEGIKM

The mark [1] stands for this setting: as listed for compounds available through Tocris Bioscience.

With `c1ccc(-c2n[nH]cc2-c2ccnc3ccccc23)nc1` [LY 364947, 4-[3-(2-Pyridinyl)-1H-pyrazol-4-yl]-quinoline], the Function entry is on record as “(Selective inhibitor of ALK5)”.

Regarding `Cc1cccc(-c2nn(C(=S)Nc3ccccc3)cc2-c2ccnc3ccccc23)n1` [A 83-01, 3-(6-Methyl-2-pyridinyl)-N-phenyl-4-(4-quinolinyl)-1H-pyrazole-1-carbothioamide], the Function result under setting [1] was “(Selective inhibitor of ALK5, ALK4 and ALK7)”.

As for `Cc1cccc(-c2n[nH]cc2-c2ccc3ncccc3n2)n1` [SJN 2511, 2-(3-(6-Methylpyridine-2-yl)-1H-pyrazol-4-yl)-1,5-naphthyridine], the Function result under setting [1] is given as “(Selective inhibitor of ALK5)”.
